Reference: US10925856B2, “Methods and compositions involving bucindolol for the treatment of atrial fibrillation” (priority 2018, dated 2021)
Read-outs that look alike come from different tables or passages of the source.

Key:
[1] = target: T1, human β1-adrenergic receptor (Homo sapiens, UniProt P08588, G389R); assay: Estimated β1-AR receptor occupancy from plasma concentration and KD; settings: 12 weeks trough plasma concentration
T1 construct: from tissue; host or cells: notional myocardial receptor of GENETIC-AF patients; no receptor preparation was assayed
T1 sequence (P08588 whole entry G389R): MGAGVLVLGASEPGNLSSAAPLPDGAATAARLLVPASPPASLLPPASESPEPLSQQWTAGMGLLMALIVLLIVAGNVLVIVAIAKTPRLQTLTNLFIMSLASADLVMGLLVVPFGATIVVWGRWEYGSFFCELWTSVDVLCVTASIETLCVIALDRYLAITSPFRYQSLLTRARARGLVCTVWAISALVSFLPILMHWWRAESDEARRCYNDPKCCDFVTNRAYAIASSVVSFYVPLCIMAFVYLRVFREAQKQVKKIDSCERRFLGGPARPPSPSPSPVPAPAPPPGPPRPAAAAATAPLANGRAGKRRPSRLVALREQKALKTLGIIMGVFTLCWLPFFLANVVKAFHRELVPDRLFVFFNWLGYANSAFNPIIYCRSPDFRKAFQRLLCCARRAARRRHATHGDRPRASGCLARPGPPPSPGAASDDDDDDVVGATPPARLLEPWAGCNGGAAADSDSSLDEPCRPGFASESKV

[2] = clinical; settings: human, in vivo
Source text: Based on FDA interactions and recommendations^63 the inventor sought to categorize CYP2D6 genetic variation in every patient in GENETIC-AF.
CYP2D6 polymorphisms were identified using the xTAG® CYP2D6 Kit v3 manufactured by Luminex Corporation, with the assay performed by Esoterix, Boulder, Colo. on DNA extracted from whole blood by LabCorp's subsidiary Covance, of Salt Lake City, Utah See Table 41 in the Appendix for identified polymorphisms.
Sparse sampling of bucindolol hydrochloride plasma concentrations for population pharmacokinetic analysis. The analysis plan for the substudy will be prepared separately prior to unblinding.

[3] = in vivo; cited from earlier work
[4] = target: human β1-adrenergic receptor (Homo sapiens, UniProt P08588); settings: cited from earlier work
human β1-adrenergic receptor (Homo sapiens, UniProt P08588), sequence (P08588 whole entry): as the sequence (P08588 whole entry G389R) above, with R389G counted along it

[5] = CYP2D6 Extensive/Ultra Metabolizer
[6] = Drug Titration Period (first 42 days)
[7] = treatment-emergent AE, total follow-up

CC(C)(Cc1c[nH]c2ccccc12)NCC(O)COc1ccccc1C#N (centres unmarked) [bucindolol, 2-(3-(1-(1H-indol-3-yl)-2-methylpropan-2-ylamino)-2-hydroxypropoxy)benzonitrile]
β1-AR receptor occupancy ([1]; CYP2D6 EMs): 85.2% | β1-AR receptor occupancy ([1]; CYP2D6 IMs): 94.6% | β1-AR receptor occupancy ([1]; CYP2D6 PMs): 99.0% | Plasma concentration in PMs relative to IMs ([2]; 12 weeks): 5.7 fold | concentration at 12 weeks ([2]; Drug levels as measured in PMs): 200 to 500 nM | Bioavailability [3]: approximately 30% | HEADACHE, % of patients [5]: (4.8%) | HEADACHE, number of patients [5]: 5 | HYPOTENSION, % of patients [5]: (9.5%) | HYPOTENSION, number of patients [5]: 10 | IMMUNE SYSTEM DISORDERS, % of patients [5]: (1.0%) | IMMUNE SYSTEM DISORDERS, number of patients [5]: 1 | INFECTIONS AND INFESTATIONS, % of patients [5]: (28.6%) | INFECTIONS AND INFESTATIONS, number of patients [5]: 30 | INFLUENZA, % of patients [5]: (2.9%) | INFLUENZA, number of patients [5]: 3 | HEADACHE, % of patients (CYP2D6 Poor Metabolizer): (0.0%) | HEADACHE, number of patients (CYP2D6 Poor Metabolizer): 0 | INFECTIONS AND INFESTATIONS, % of patients (CYP2D6 Poor Metabolizer): (33.3%) | INFECTIONS AND INFESTATIONS, number of patients (CYP2D6 Poor Metabolizer): 4 | INFLUENZA, % of patients (CYP2D6 Poor Metabolizer): (8.3%) | INFLUENZA, number of patients (CYP2D6 Poor Metabolizer): 1 | UPPER RESPIRATORY TRACT INFECTION, % of patients (CYP2D6 Poor Metabolizer): (8.3%) | UPPER RESPIRATORY TRACT INFECTION, number of patients (CYP2D6 Poor Metabolizer): 1 | AC mortality or CV hosp or treatment disc. due to AE, patients N (%) [6]: 5 (4%) | All-cause mortality, patients N (%) [6]: 0 (0%) | AEs leading to study withdrawal (excluding death) (GENETIC-AF, all randomized patients): 1.5% | Adverse event leading to death, patients N (%) (Total Study On-Drug Period): 2.3% | Adverse events leading to study withdrawal (excluding death), patients N (%) (Total Study On-Drug Period): 2 (1.5%) | Adverse event leading to death, patients N (%) (Total Study On-Drug Period, listed as Bucindolol): 3 (2.3%) | AE SOC frequency: Cardiac Disorders (human, in vivo): 25.4% | AE SOC frequency: Eye Disorders (human, in vivo): 6.0% | AE SOC frequency: Gastrointestinal Disorders (human, in vivo): 20.9% | AE SOC frequency: Hepatobiliary Disorders (human, in vivo): 3.7% | AE SOC frequency: Infections and Infestations (human, in vivo): 28.4% | AE SOC frequency: Investigators (human, in vivo): 12.7% | AE SOC frequency: Metabolism and Nutrition Disorders (human, in vivo): 14.2% | AE SOC frequency: Musculoskeletal and Connective Tissue Disorders (human, in vivo): 25.4% | AE SOC frequency: Neoplasms Benign Malignant and Unspecified (human, in vivo): 2.2% | AE SOC frequency: Renal and Urinary Disorders (human, in vivo): 10.4% | AE SOC frequency: Respiratory, Thoracic and Mediastinal Disorders (human, in vivo): 15.7% | AE frequency: arthralgia (human, in vivo): 5.2% | AE frequency: cardiac failure (human, in vivo): 5.2% | AE frequency: chronic kidney disease (human, in vivo): 3.0% | AE frequency: constipation (human, in vivo): 6.0% | AE frequency: epistaxis (human, in vivo): 3.0% | AE frequency: hematuria (human, in vivo): 3.0% | AE frequency: hypomagnesaemia (human, in vivo): 3.0% | AE frequency: hypotension (human, in vivo): 9.7% | AE frequency: pneumonia (human, in vivo): 3.0% | AE frequency: upper respiratory tract infection (human, in vivo): 6.0% | AE of symptomatic bradycardia or bradycardia leading to dose reduction or discontinuation of study drug, patients N (%) (human, in vivo): 4 (3.0%) | AEs leading to permanent study drug discontinuation (human, in vivo): 8.2% | AEs: Bradycardia (human, in vivo): 3.7% | AEs: Stroke (99% on OACs) (human, in vivo): 0.0% | Adverse event possible/probably related to study drug, patients N (%) (human, in vivo): 32 (23.9%) | Adverse events leading to permanent study drug discontinuation, patients N (%) (human, in vivo): 11 (8.2%) | Adverse events related to neoplasm, patients N (%) (human, in vivo): 3 (2.2%) | Any bradycardia event, % of patients (human, in vivo): (4%) | Any bradycardia event, number of patients (human, in vivo): 5 | Any bradycardia, % of patients (human, in vivo): (4%) | Any bradycardia, number of patients (human, in vivo): 5 | Any serious adverse event, % of patients (human, in vivo): (25%) | Any serious adverse event, number of patients (human, in vivo): 33 | Asymptomatic bradycardia event, % of patients (human, in vivo): (0%) | Asymptomatic bradycardia event, number of patients (human, in vivo): 0 | Asymptomatic bradycardia, % of patients (human, in vivo): (0%) | Asymptomatic bradycardia, number of patients (human, in vivo): 0 | Bradycardia event leading to study drug discontinuation, % of patients (human, in vivo): (1%) | Bradycardia event leading to study drug discontinuation, number of patients (human, in vivo): 1 | Bradycardia event leading to study drug dose interruption, % of patients (human, in vivo): (0%) | Bradycardia event leading to study drug dose interruption, number of patients (human, in vivo): 0 | Bradycardia event leading to study drug dose reduction, % of patients (human, in vivo): (2%) | Bradycardia event leading to study drug dose reduction, number of patients (human, in vivo): 3 | CAD, % of patients (human, in vivo): (6%) | CAD, number of patients (human, in vivo): 8 | Cardiac AE rate (heart failure or bradycardia events) (human, in vivo): 25% | Cardiovascular serious adverse event, % of patients (human, in vivo): (9%) | Cardiovascular serious adverse event, number of patients (human, in vivo): 12 | Catheterization, % of patients (human, in vivo): (4%) | Catheterization, number of patients (human, in vivo): 5 | Heart block (Mobitz I/II, 2:1, or 3rd degree), % of patients (human, in vivo): (0%) | Heart block (Mobitz I/II, 2:1, or 3rd degree), number of patients (human, in vivo): 0 | ICD Implantation, % of patients (human, in vivo): (4%) | ICD Implantation, number of patients (human, in vivo): 5 | Incidence of Cr > 3.0, % of patients (human, in vivo): (1%) | Incidence of Cr > 3.0, number of patients (human, in vivo): 1 | Incidence of bilirubin > 2.0, % of patients (human, in vivo): (1%) | Incidence of bilirubin > 2.0, number of patients (human, in vivo): 1 | Non-CNS Embolism, % of patients (human, in vivo): (0%) | Non-CNS Embolism, number of patients (human, in vivo): 0 | Pacemaker Implantation, % of patients (human, in vivo): (1%) | Pacemaker Implantation, number of patients (human, in vivo): 1 | REPRODUCTIVE SYSTEM AND BREAST DISORDERS, % of patients (human, in vivo): (0.0%) | REPRODUCTIVE SYSTEM AND BREAST DISORDERS, number of patients (human, in vivo): 0 | SAE SOC frequency: Infections and Infestations (human, in vivo): 4.5% | SAE SOC frequency: Renal and Urinary Disorders (human, in vivo): 3.0% | SAE SOC frequency: Respiratory, Thoracic and Mediastinal Disorders (human, in vivo): 5.2% | SAE frequency: Cardiac Failure (human, in vivo): 3.0% | SAE frequency: Cardiac Failure Congestive (human, in vivo): 2.2% | SAEs: Any cardiovascular event (human, in vivo): 9.0% | SINUS BRADYCARDIA, % of patients (human, in vivo): (0.0%) | SINUS BRADYCARDIA, number of patients (human, in vivo): 0 | Stroke, % of patients (human, in vivo): (0%) | Stroke, number of patients (human, in vivo): 0 | Symptomatic bradycardia event, % of patients (human, in vivo): (4%) | Symptomatic bradycardia event, number of patients (human, in vivo): 5 | Symptomatic bradycardia, % of patients (human, in vivo): (4%) | Symptomatic bradycardia, number of patients (human, in vivo): 5 | TIA, % of patients (human, in vivo): (0%) | TIA, number of patients (human, in vivo): 0 | UPPER RESPIRATORY TRACT INFECTION, % of patients (human, in vivo): (5.7%) | UPPER RESPIRATORY TRACT INFECTION, number of patients (human, in vivo): 6 | All-cause hospitalization, patients N (%) (human, in vivo, 42 days): 7 (5%) | Any serious adverse event, patients N (%) (human, in vivo, 42 days): 8 (6%) | Asymptomatic bradycardia, patients N (%) (human, in vivo, 42 days): 0 (0%) | Cardiovascular hospitalization, patients N (%) (human, in vivo, 42 days): 5 (4%) | Heart failure hospitalization, patients N (%) (human, in vivo, 42 days): 1 (1%) | Symptomatic bradycardia, patients N (%) (human, in vivo, 42 days): 2 (1%) | Treatment-related cardiovascular serious adverse event, patients N (%) (human, in vivo, 42 days): 0 (0%) | Treatment-related serious adverse event, patients N (%) (human, in vivo, 42 days): 1 (1%) | Ablation, % of patients (in vivo): (16%) | Ablation, number of patients (in vivo): 21 | Additional ECV After Successful SR, % of patients (in vivo): (28%) | Additional ECV After Successful SR, number of patients (in vivo): 37 | Anti-Arrhythmic Therapy, % of patients (in vivo): (34%) | Anti-Arrhythmic Therapy, number of patients (in vivo): 46 | Appropriate Firing of on ICD, % of patients (in vivo): (0%) | Appropriate Firing of on ICD, number of patients (in vivo): 0 | Bradycardia AEs (in vivo): none | Rate Control Therapy, % of patients (in vivo): (15%) | Rate Control Therapy, number of patients (in vivo): 20 | HEADACHE, % of patients [7]: (4.5%) | HEADACHE, number of patients [7]: 6 | INFECTIONS AND INFESTATIONS, % of patients [7]: (26.9%) | INFECTIONS AND INFESTATIONS, number of patients [7]: 36 | INFLUENZA, % of patients [7]: (3.0%) | INFLUENZA, number of patients [7]: 4 | UPPER RESPIRATORY TRACT INFECTION, % of patients [7]: (5.2%) | UPPER RESPIRATORY TRACT INFECTION, number of patients [7]: 7 | INFECTIONS AND INFESTATIONS, % of patients (treatment-emergent serious AE): (4.5%) | INFECTIONS AND INFESTATIONS, number of patients (treatment-emergent serious AE): 6 | KD (KA in the occupancy formula), dissociation constant for human β1-ARs [4]: 3.6 nM
